Biological target: Histamine H4 receptor (Homo sapiens, UniProt Q9H3N8)
Assay: In vitro [3H]histamine Binding Assay
Conditions: pH 7.4; 4 °C
Protocol: Prior to the experiments, cell membranes were sedimented by a 10 min centrifugation at 4 °C and 16 0009x g and resuspended in binding buffer (12.5 mM MgCl2, 1 mM EDTA and 75 mM Tris/HCl, pH 7.4). Competition binding experimentswere carried out by incubating membranes, 35 ug/well (prepared from Sf9 cells transiently expressing human H4R, co-expressed with G proteins Galphai2 and Gbeta1gamma2 subunits) in a final volume of 0.2 mL containing binding buffer and [3H]histamine 2x HCl (10 nM, 15.3 Ci/mmol, PerkinElmer, Waltham, MA, USA) in a 96 well microtitre plate. Assays were run in duplicates or triplicates with four or seven appropriate concentrations between 100 nM or 0.1 nM and 100 uM of the test compounds. Amount of experiments was at least 2. Only exceptions were for substance 2, 3, and 4 where only one experiment in duplicates was performed.Incubations were performed for 60 min at 25 °C and shaking at 250 rpm. Non-specific binding was determined.

Sequence of Histamine H4 receptor (Q9H3N8 whole entry): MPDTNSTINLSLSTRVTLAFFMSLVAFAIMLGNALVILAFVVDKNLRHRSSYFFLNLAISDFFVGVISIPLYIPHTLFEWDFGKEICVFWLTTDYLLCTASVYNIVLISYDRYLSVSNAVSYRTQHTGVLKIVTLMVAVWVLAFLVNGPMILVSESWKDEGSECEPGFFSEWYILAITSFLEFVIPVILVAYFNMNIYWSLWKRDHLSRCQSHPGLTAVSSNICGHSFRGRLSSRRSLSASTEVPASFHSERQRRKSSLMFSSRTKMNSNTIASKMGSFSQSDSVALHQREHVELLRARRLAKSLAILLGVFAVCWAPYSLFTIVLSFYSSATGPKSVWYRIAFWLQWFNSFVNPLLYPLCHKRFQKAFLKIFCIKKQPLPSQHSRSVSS

For `CN1CCN(CCCNC(=O)Nc2cccc(Cl)c2)CC1` [1-(3-Chlorophenyl)-3-(3-(4-methylpiperazin-1-yl)propyl)urea (7)], the Ki was greater than 100 µM.

`CN1CCN(CCCNC(=O)c2sc3cc(Cl)ccc3c2Cl)CC1` [3,6-Dichloro-N-(3-(4-methylpiperazin-1-yl)propyl)benzo[b]thiophene-2-carboxamide (6)] showed a Ki greater than 100 µM.

`CN1CCN(c2nc(N)nc(CN3C(=O)NC(C)(C)C3=O)n2)CC1` [3-((4-Amino-6-(4-methylpiperazin-1-yl)-1,3,5-triazin-2-yl)methyl)-5,5-dimethylimidazolidine-2,4-dione (9)] gave a Ki of 14.6 µM.

Work on `CC(C)Cc1nc(N)nc(N2CCN(C)CC2)n1` [4-(4-Methylpiperazin-1-yl)-6-(2-methylpropyl)-1,3,5-triazin-2-amine (10)] yielded a Ki of 8.26 µM.

`CN1CCN(c2nc(N)nc(Cc3cccc4ccccc34)n2)CC1` [4-(4-Methylpiperazin-1-yl)-6-(naphthalen-1-ylmethyl)-1,3,5-triazin-2-amine (12)] was tested, and the Ki was 5.6 µM.

With `CN1CCN(c2nc(N)nc(-c3ccncc3)n2)CC1` [4-(4-Methylpiperazin-1-yl)-6-(pyridin-4-yl)-1,3,5-triazin-2-amine (15)] the Ki was 3.19 µM.

`CN1CCN(c2nc(N)nc(COc3ccc(Cl)cc3)n2)CC1` [4-((4-Chlorophenoxy)methyl)-6-(4-methylpiperazin-1-yl)-1,3,5-triazin-2-amine (14)] showed a Ki of 10.6 µM.

Work on `CN1CCN(c2nc(N)nc(Cc3ccccc3)n2)CC1` [4-Benzyl-6-(4-methylpiperazin-1-yl)-1,3,5-triazin-2-amine (13)] yielded a Ki of 7.5 µM.

`CN1CCN(CCCNC(=O)c2cc3cc(Cl)ccc3[nH]2)CC1` [5-Chloro-N-(3-(4-methylpiperazin-1-yl)propyl)-1H-indole-2-carboxamide (5)] showed a Ki greater than 100 µM.

For `CN1CCN(C(=O)c2ccccc2Cl)CC1` [(2-Chlorophenyl)(4-methylpiperazin-1-yl)methanone (1)], the Ki was greater than 100 µM.

`CN1CCN(C(=O)c2cccc(Cl)c2)CC1` [(3-Chlorophenyl)(4-methylpiperazin-1-yl)methanone (2)] was tested, and the Ki was 3.88 µM.

`CN1CCN(C(=O)c2ccc(Cl)cc2)CC1` [(4-Chlorophenyl)(4-methylpiperazin-1-yl)methanone (3)] gave a Ki of 7.55 µM.

In the case of `CN1CCN(C(=O)Nc2ccc(Cl)cc2)CC1` [N-(4-Chlorophenyl)-4-methylpiperazine-1-carboxamide (4)], the Ki is reported as 3.52 µM.

Reference: BindingDB's records for doi:10.1111/cbdd.12752 (Jagiellonian University Medical College, 2016)
